Reference: US20220251611A1, “BENZALDEHYDE PRODUCTION METHOD” (AJINOMOTO CO., INC., priority 2019, published 2022)
Read-outs that look alike come from different tables or passages of the source.

How the values were obtained:
[1] = tested on: HmaS At-His purified enzyme (HMAS); conditions: for Generated amount of mandelate: 10 mM sodium phenylpyruvate, 25° C., 15 minutes, no hydrogen peroxide taken as 100%
Protocol: Cells were collected from 10 mL of the HmaS At culture broth obtained in Example 2 by centrifugation, suspended in 2 mL of xTractor Buffer (Takara Bio), and allowed to stand at room temperature for 20 minutes, to disrupt the cells. The cell residue was removed from the disruptant by centrifugation, and the obtained supernatant was used as a soluble fraction. The soluble fraction was applied to a His-tag protein purification column HisTALON Superflow Cartridges (Takara Bio, CV=1 mL) equilibrated with a buffer containing 20 mM Tris-HCl (pH 8.0), 300 mM NaCl, and 10 mM Imidazole, to adsorb proteins on the carrier. Proteins not adsorbed on the carrier (non-adsorbed proteins) were washed off with a buffer containing 20 mM Tris-HCl (pH 8.0), 300 mM NaCl, and 10 mM Imidazole, and then a buffer containing 20 mM Tris-HCl (pH 8.0), 300 mM NaCl, and 150 mM Imidazole was flowed at 1.5 mL/min, to elute the adsorbed proteins. The eluted fractions were collected and concentrated using Amicon Ultra-15 30 k (Millipore). The concentrate was diluted with 20 mM of Tris-HCl (pH 7.6), and hereinafter used as a HmaS At-His purified enzyme.
A reaction mixture (0.2 mL) containing 10 mM of sodium phenylpyruvate, 0.01 mM of iron sulfate, 10 mM of trisodium citrate, 10 mM of sodium ascorbate, 100 mM of Tris-HCl (pH 7.0), 0.02 mg/mL of the HmaS At-His purified enzyme, and 0 to 1 mM of hydrogen peroxide was put into a 1.5 mL-volume tube, and a reaction was carried out at 25° C. Similarly, a reaction without addition of HmaS At-His was carried out. After 15 minutes, a 0.05 mL aliquot of the reaction mixture was mixed with 0.2 mL of a reaction stop solution (1% phosphoric acid), and subjected to HPLC analysis. HPLC analysis was carried out in the same manner as Example 5, and mandelate enzymatically-generated was quantified. The amount of hydrogen peroxide added and the generated amount of mandelate are shown in Table 3, wherein the generated amount of mandelate in the case of not adding hydrogen peroxide was taken as 100%.

[2] = tested on: benzaldehyde generation from L-Phe by AAD, HmaS At, Md1B and Md1C concentrates; test: Synthesis of benzaldehyde from L-Phe with addition of culture broth of catalase-expressing strain; type: biochemical, E. coli; conditions: 50 mM L-Phe, 0.1 mL of 5-fold Cat concentrate in 1 mL reaction mixture, 25° C., 20 hours, then Md1C concentrate 4 hours; HPLC; Ctrl 9.1
Protocol: A 10 mL aliquot of the AAD culture broth obtained in Example 1 was centrifuged, 8 mL of the supernatant was removed, and the cells were suspended in the remaining culture supernatant, to obtain a 5-fold concentrated culture broth. This was used for the following reactions as an AAD concentrate. Similarly, 5-fold concentrates were prepared from the HmaS At culture broths, Md1B culture broth, and Md1C culture broth obtained in Examples 2 to 4, and used for the following reactions as a HmaS At concentrates, Md1B concentrate, and Md1C concentrate. A 1 mL aliquot of the Cat 1 culture broth obtained in Example 6 was centrifuged, 0.8 mL of the supernatant was removed, and the cells were suspended in the remaining culture supernatant, to obtain a 5-fold concentrated culture broth. This was used for the following reactions as a Cat 1 concentrate. Similarly, 5-fold concentrates were prepared from the Cat 2 to 15 culture broths and the Ctrl culture broth, and used for the following reactions as Cat 2 to 15 concentrates and a Ctrl concentrate.
After 20 hours, the reaction mixture was centrifuged, a 0.49 mL aliquot of the supernatant was mixed with 0.01 mL of the Md1C concentrate, and the resultant mixture was put into a test tube and shaken at 25° C. […]

| Compound | Generated amount of mandelate ([1]; 0.001 mM hydrogen peroxide added) | Generated amount of mandelate ([1]; 0.01 mM hydrogen peroxide added) | Generated amount of mandelate ([1]; 0.1 mM hydrogen peroxide added) | Generated amount of mandelate ([1]; 1 mM hydrogen peroxide added) | Effect on HMAS activity ([1]; 0.01 to 1 mM of hydrogen peroxide added) | Benzaldehyde [2] |
| --- | --- | --- | --- | --- | --- | --- |
| OO [Hydrogen peroxide, hydrogen peroxide] | 103% | 94% | 39% | 1% | inhibits HMAS activity |  |
| Cat 2: Cat HPII derived from E. coli (SEQ ID NO: 6), concentrated culture broth of expressing strain |  |  |  |  |  | 10.7 mM |
